Laboratory results from patent US11918563B1, “Methods and compositions for treatment of epileptic disorders” (Ovid Therapeutics Inc., priority 2016, dated 2024).
Like-named read-outs stand apart in the source and are kept apart here. Marks after values point to notes of the source that are not given here.

What was measured:
[1] = test system: Li-Pilo model of status epilepticus; assay: Ability to block benzodiazepine-resistant status epilepticus in the Li-Pilo model; format: in vivo, male Sprague Dawley rats
Description: At the conclusion of the behavioral observation period, a 3 mL injection of lactated Ringer's solution is administered to all surviving rats to replace any SE-induced fluid loss.
All animals in the study are retained for 24 hours following completion of the study for assessment of weight change.
Additional measures of effects, e.g., motor impairment, weight change post-SE, or survival from SE for 24 hrs are also recorded during the studies for all treatment conditions.

[2] = human, in vivo, po
[3] = for Fe: geometric mean N=10
[4] = three-month efficacy study, insomnia; cited from earlier work
[5] = patients with a history of drug abuse; cited from earlier work
[6] = 0.5 mg/kg i.p. 30 min after first convulsive seizure, rats
[7] = 2 mg/kg i.p. 30 min after first convulsive seizure, rats
[8] = 5 mg/kg i.p. 30 min after first convulsive seizure, rats
[9] = 10 mg/kg i.p. 30 min after first convulsive seizure, rats
[10] = 20 mg/kg i.p. 30 min after first convulsive seizure, rats

SMILES | Protection (includes PK rats), percent [1, 6] | Protection (includes PK rats), protected/total [1, 6] | 24-hour Survival (excludes PK rats), percent ([1]; 0.5 mg/kg i.p., rats) | 24-hour Survival (excludes PK rats), survivors/total ([1]; 0.5 mg/kg i.p., rats) | Protection (includes PK rats), percent [1, 7] | Protection (includes PK rats), protected/total [1, 7] | 24-hour Survival (excludes PK rats), percent ([1]; 2 mg/kg i.p., rats) | 24-hour Survival (excludes PK rats), survivors/total ([1]; 2 mg/kg i.p., rats) | Protection (includes PK rats), percent [1, 8] | Protection (includes PK rats), protected/total [1, 8] | 24-hour Survival (excludes PK rats), percent ([1]; 5 mg/kg i.p., rats) | 24-hour Survival (excludes PK rats), survivors/total ([1]; 5 mg/kg i.p., rats) | Protection (includes PK rats), percent [1, 9] | Protection (includes PK rats), protected/total [1, 9] | 24-hour Survival (excludes PK rats), percent ([1]; 10 mg/kg i.p., rats) | 24-hour Survival (excludes PK rats), survivors/total ([1]; 10 mg/kg i.p., rats) | Protection (includes PK rats), percent [1, 10] | Protection (includes PK rats), protected/total [1, 10] | 24-hour Survival (excludes PK rats), percent ([1]; 20 mg/kg i.p., rats) | 24-hour Survival (excludes PK rats), survivors/total ([1]; 20 mg/kg i.p., rats) | further results
CC(=O)[C@H]1CC[C@H]2[C@@H]3CC[C@H]4C[C@H](O)CC[C@]4(C)[C@H]3CC[C@]12C [ALLO, allopregnanolone] | (0%) | 0/13 | (60%) | 6/10 | (0%) | 0/13 | (70%) | 7/10 | (0%) | 0/13 | (72%) | 7/9 | (15%) | 2/13 | (90%) | 9/10 | (7.7%) | 1/13 | (90%) | 9/10 | 
CCN(CC)CCN1C(=O)CN=C(c2ccccc2F)c2cc(Cl)ccc21 [Flurazepam, flurazepam] |  |  |  |  |  |  |  |  |  |  |  |  |  |  |  |  |  |  |  |  | Residual effect on primary endpoints Choice Reaction Time and Critical Flicker Fusion [2]: showed significant effect
CC(=O)[C@H]1CC[C@H]2[C@@H]3CC[C@H]4C[C@](C)(O)CC[C@]4(C)[C@H]3CC[C@]12C [GNX, ganaxolone] | (0%) | 0/13 | (60%) | 6/10 | (0%) | 0/13 | (80%) | 8/10 | (0%) | 0/13 | (70%) | 7/10 | (7.7%) | 1/13 | (90%) | 9/10 | (30.8%)* | 4/13 | (90%) | 9/10 | Improvement in protection, in words ([1]; 20 mg/kg i.p., dose-dependent efficacy): significant (p<0.02) improvement in protection
Oc1noc2c1CCNC2 [gaboxadol, 4,5,6,7-tetrahydroisoxazolo [5,4-c] pyridine-3-ol] |  |  |  |  |  |  |  |  |  |  |  |  |  |  |  |  |  |  |  |  | 24-hour survival, in words ([1]; 10 mg/kg, rats): Significant improvements in 24-hour survival; Dose-response profile of protection, in words ([1]; i.p., p=0.071 at 0.5 mg/kg): Potential for inverted U-response profile; Fe ([3]; 2.5 mg single oral dose): 43%; Fe ([3]; 5 mg single oral dose): 45%; Fe ([3]; 10 mg I.V.): 53%; Fe ([3]; 10 mg Oral): 53%; Fe ([3]; 15 mg single oral dose): 50%; Fe ([3]; 20 mg single oral dose): 53%; CL (in CL/F row) ([3]; human, in vivo, iv, 10 mg): 438 mL/min; AUC0-∞ Slope (dose proportionality assessment) ([3]; human, in vivo, po): 0.98; Cmax Slope (dose proportionality assessment) ([3]; human, in vivo, po): 0.95; CL/F ([3]; human, in vivo, po, 2.5 mg): 461 mL/min; CL/F ([3]; human, in vivo, po, 5 mg): 488 mL/min; CL/F ([3]; human, in vivo, po, 10 mg): 476 mL/min; CL/F ([3]; human, in vivo, po, 15 mg): 469 mL/min; CL/F ([3]; human, in vivo, po, 20 mg): 499 mL/min; Residual effect on primary endpoints Choice Reaction Time and Critical Flicker Fusion [2]: did not show residual effect; Residual effects on other measurements (MSLT, DSST, Tracking, Memory tests, Body Sway, Leeds Sleep Evaluation Questionnaire) [2]: did not show any signs of residual effects; Effects in sleep onset and sleep maintenance [4]: failed to show significant effects; Psychiatric adverse events [5]: steep increase in psychiatric adverse events
